Holding throughout (format): cell-based, human
Test [1] concerns Donor 3 COP T-Cell Lines. Kind of test: ATP proliferation assay (CellTiter Glo), Donor 3 COP T-cell lines, incl. reactivity to non-canonical GA peptides. To be noted: for Non-Canonical Peptide Non-Reactivity: proliferation <2 times no antigen control.
Test [2] concerns Donor 4 COP T-Cell Lines. Kind of test: ATP proliferation assay (CellTiter Glo), Donor 4 COP T-cell lines, incl. reactivity to non-canonical GA peptides. The settings on record: for Non-Canonical Peptide Non-Reactivity: proliferation <2 times no antigen control; for Proliferation (luminescent ATP assay), Mean: T-cell line 205-1F4, Day 71, autologous B-LCL; for Reactivity (proliferation), Mean: T-cell line 205-1H3, 0 μg/mL 4121.0. For orientation: ATP-based viability assays read luminescence as a measure of living cells.

Test [3] deals with Donor 3 GMA T-Cell Lines. The experiment in a line: ATP proliferation assay (CellTiter Glo), Donor 3 GMA T-cell lines, incl. reactivity to non-canonical GA peptides. The settings on record: Day 50 of culturing.
Test [4] has as its system Donor 1 COP T-Cell Lines. The experiment in a line: Multiplex bead cytokine assay (FlowCytoMix), Donor 1 COP T-cell lines. The settings on record: 222-2D8, 222-1H12, 222-2F12; Day 56; 48 hours; 1, 3, 10 μg/mL. The procedure: Culture medium was removed from cultures prepared as for proliferation assay and utilized to measure cytokine production. In most cases culture medium was collected 18-24 hours after mixing T-cells, APC, and stimulating antigen. Cytokine production was measured by ELISA or bead assay. For measuring cytokine production, 100-150 μL culture medium (100 μL if culture was to be continued, otherwise 150 μL) was removed from each well. In some cases, the culture was continued 48 hours, for a total of 72 hours of culture, and the proliferative response measured.
The concentration of multiple cytokines was measured simultaneously using FlowCytoMix™ kits (eBioscience, San Diego Calif.). These are fluorescent bead based assays consisting of beads conjugated to anti cytokine antibodies. Beads specific for each cytokine are distinguished by size and fluorescence at 670 run. Cytokine bound to each bead is detected using a phycoerythrin conjugated antibody so that the fluorescence at 585 nm reflects the concentration of cytokine in the sample. Two kits were utilized which measured different cytokine panels. The TH1/TH2 kit measures IFN-γ, IL-1β, IL-2, IL-4, IL-5, IL-6, IL-8, IL-10, IL-12p70, TNF-α (TNF) and TNF-β (LT). The TH1/TH2/TH9/TH17/TH22 kit measures […], IL-1β, IL-2, IL-4, IL-5, IL-6, IL-9, IL-10, IL-12p70, IL-13, IL-17, IL-22, and TNF-α (TNF). Both kits were used following the manufacturer's instructions.
IL-12p70, IFN-γ, IL-2, IL-10, IL-8, IL-6, IL-5, IL-4, IL-1β, TNF-α (TNF), and TNF-β (LT) secretion were measured in response to stimulation with 1, 3, or 10 μg/mL GMA, or 1, 3, or 10 μg/mL COP, as well as a no-antigen control and an MBP control, in the presence of autologous EBV-transformed B-LCL.

Several values for one entry are separate records, joined by “and”; a condition that tells them apart may be missing. Equal entries are not always repeated.

For the substance poly (Glu-Ala; 6:4) [GA 64], the “Non-Canonical Peptide Non-Reactivity” value in test [1] (165-C4C) is on record as “GA64”; in test [1] (165-F3C) it was “GA 64”; in test [1] (165-F6C), “GA64”; in test [2] (205-1F4), “GA 64”; in test [2] (205-1H3), “GA 64”. The “Nonreactive T-Cell Line” value in test [1] (Donor 3 COP lines, stimulation with the non-canonical GA peptide) is 165-C4C (Donor 3) and 165-F3C (Donor 3) and 165-F6C (Donor 3); in test [2] (Donor 4 COP lines, stimulation with the non-canonical GA peptide), 205-1F4 (Donor 4) and 205-1H3 (Donor 4). For the same substance, the “Proliferation (luminescent ATP assay), Mean” value turned out to be 2205 in test [1] (T-cell line 165-C4C, 1 μg/mL antigen, Day 66 of culture, 0 μg/mL 1881); 2229 in test [1] (T-cell line 165-C4C, 3 μg/mL antigen, Day 66 of culture, 0 μg/mL 1881); 2244 in test [1] (T-cell line 165-C4C, 10 μg/mL antigen, Day 66 of culture, 0 μg/mL 1881); 1791 in test [1] (T-cell line 165-F3C, 1 μg/mL antigen, Day 77 of culture, 0 μg/mL 1563); 1943 in test [1] (T-cell line 165-F3C, 3 μg/mL antigen, Day 77 of culture, 0 μg/mL 1563); 1870 in test [1] (T-cell line 165-F3C, 10 μg/mL antigen, Day 77 of culture, 0 μg/mL 1563). Further, the “Proliferation (luminescent ATP assay), Mean” value in test [2] (1 μg/mL antigen) was 2544; in test [2] (3 μg/mL antigen), 2261; in test [2] (10 μg/mL antigen), 2080. The “Reactivity (proliferation), Mean” value in test [2] (1 μg/mL antigen) is given as 4012.0; in test [2] (3 μg/mL antigen), 4246.0; in test [2] (10 μg/mL antigen), 2054.3.
As for EKPKVEAYKAAAAPA [STERN], the “proliferation response to non-canonical peptides” value in test [1] (165-E3C, separate experiment) is “did not react”. Besides, the “Proliferation (luminescent ATP assay), Mean” value in test [3] (T-cell line 165-05G, 1 μg/mL antigen, No Antigen Value 2149) is 1750 RLU; in test [3] (T-cell line 165-05G, 3 μg/mL antigen, No Antigen Value 2149), 1606 RLU; in test [3] (T-cell line 165-05G, 10 μg/mL antigen, No Antigen Value 2149) it was 1650 RLU; in test [3] (T-cell line 165-05G, 30 μg/mL antigen, No Antigen Value 2149), 1572 RLU; in test [3] (T-cell line 165-E9G, 1 μg/mL antigen, No Antigen Value 1742), 1673 RLU; in test [3] (T-cell line 165-E9G, 3 μg/mL antigen, No Antigen Value 1742) it was 1480 RLU. The “Proliferation (luminescent ATP assay), Mean” value was found to be 1487 RLU in test [3] (T-cell line 165-E9G, 30 μg/mL antigen, No Antigen Value 1742); 1471 RLU in test [3] (T-cell line 165-E9G, 10 μpg/mL antigen, No Antigen Value 1742); 2465 RLU in test [3] (T-cell line 165-F10G, 1 μg/mL antigen, No Antigen Value 3752); 2389 RLU in test [3] (T-cell line 165-F10G, 3 μg/mL antigen, No Antigen Value 3752); 2030 RLU in test [3] (T-cell line 165-F10G, 10 μg/mL antigen, No Antigen Value 3752); 2583 RLU in test [3] (T-cell line 165-F10G, 30 μg/mL antigen, No Antigen Value 3752). Further, the “Proliferation (luminescent ATP assay), Mean” value worked out at 2279 RLU in test [3] (T-cell line 165-H11G, 1 μg/mL antigen, No Antigen Value 1485); 2118 RLU in test [3] (T-cell line 165-H11G, 3 μg/mL antigen, No Antigen Value 1485); 2418 RLU in test [3] (T-cell line 165-H11G, 10 μg/mL antigen, No Antigen Value 1485); 2296 RLU in test [3] (T-cell line 165-H11G, 30 μg/mL antigen, No Antigen Value 1485).
Regarding “L-glutamic acid polymer with L-alanine, L-lysine and L-tyrosine, acetate (salt) [GA]”, in test [4], the “cytokine secretion, dose comparison” value is recorded as “highest levels of cytokines”.

Values taken from patent publication US9995734B2, “Human T cell line assay for evaluating the immunologic identity of glatiramer acetate preparations” (Mylan Inc., priority 2013, dated 2018).
